Source: paper PMC10526274, “Epithelial-Immune Cell Crosstalk Determines the Activation of Immune Cells In Vitro by the Human Cathelicidin LL-37 at Low Physiological Concentrations” (Biomolecules, 2023)
Values joined by “and” are separate entries in the source; they are usually repeats but may differ in a detail not shown here. Equal values may be shown once.

Assays:
[1] = system: Caco-2/NKT cell co-culture; test: Multiplex xMAP cytokine levels, Caco-2/NKT co-culture stimulated with LL-37; type: cell-based, human; settings: NKT/Caco-2 co-culture, 1 µM LL-37, 24 h, n=2
Protocol: Caco-2 cell line (ATCC HTB-37) was cultured in a humidified CO2-incubator (5% CO2, 37 °C) in the complete DMEM/F12 (1:1) medium (Gibco, Waltham, MA, USA) containing 10% fetal bovine serum (FBS, Gibco) and 1X antibiotic–antimycotic solution (Gibco). To stabilize the cell phenotype, Caco-2 cells have been subcultivated three times before seeding on the filter supports. Then, Caco-2 cells were seeded at a density of 2 × 10^5 cells/cm^2 onto 24-well Millicell cell culture inserts (PC, 0.4-μm pore size, 0.6 cm^2 surface area, cat. #PIHP01250) (Millipore, Burlington, MA, USA), precoated with 0.2% bovine gelatin (Sigma-Aldrich, Saint Louis, MO, USA). After seeding, Caco-2 cells were grown in the same complete medium with re-feeding every 2–3 days until polarization of the monolayer occurred. The functional polarity of the monolayers was developed when transepithelial electrical resistance (TEER) between the apical and basolateral surfaces of the monolayers reached […] as measured by the electrical resistance system Millicell-ERS Voltohmmeter (Millipore, Burlington, MA, USA). Grown cell monolayers were used in transport and cytokine production experiments between the 21st and 29th days.
NKT cells (CD3^+CD56^+) were isolated from PBMCs using the FACSVantageDiVa cell sorter (Becton Dickinson, Franklin Lakes, NJ, USA), equipped with 405, 488, and 643 nm lasers (Supporting Materials, Figure S1). PBMCs were re-suspended in the FACS buffer (PBS containing 0.5% BSA and 2 mM EDTA) and labeled with monoclonal mouse anti-human CD3-APC (clone UCHT1, Beckman Coulter, Pasadena, CA, USA) and mouse anti-human CD56-PE/Cy7 (clone N901, Beckman Coulter) antibodies to isolate NKT cells (CD3^+CD56^+).
Sorted NKT cells were expanded by stimulation with Dynabead Human T-Expander CD3/CD28 magnetic beads (Gibco) in RPMI-1640 medium containing 10% FBS, 1X antibiotic–antimycotic solution, 100 U/mL IL-2 (Gibco), and 50 ng/mL IL-7 (Sci-Store). CD3/CD28 magnetic beads were subsequently removed with a magnet. Expanded NKT cells were washed out of the cytokines and cryopreserved.
Primary blood monocytes, moDCs, and NKT cells were seeded in 600 µL of complete RPMI-1640 with 10% Human AB serum (Capricorn Scientific, Ebsdorfergrund, Germany) and supplemented with 1X antibiotic–antimycotic solution into the wells of 24-well plates at a density of 3–7 × 10^5 cells/well 24 h before the experiment. Then, 24 h later, the medium in each well was replaced by the same medium with 1 µM of LL-37 for the sample wells or fresh medium alone for the control wells, and the permeable inserts with the Caco-2 monolayer with TEER > 400 Ω × cm^2, containing 400 μL of the complete medium in their apical chamber, were immediately placed into the appropriate wells. Also, inserts with the Caco-2 monolayer were placed in cell-free wells of 24-well plates in the same complete RPMI-1640 medium with or without 1 µM of LL-37 as controls. Cells were kept in a CO2-incubator (5% CO2, 37 °C) for another 24 h. Then, culture medium from each well was collected, centrifuged, and frozen at −70 °C.
To quantitatively evaluate a broad spectrum of analytes secreted by human cell cultures at the protein level, multiplex xMAP technology was used. […]

human PBMCs = settings: LL-37 at 5 μg/mL; cited from earlier work
Protocol: In contrast to the chemotactic potential of LL-37, available data on its ability to induce cytokine production by different cells argue for the absence of its biological activity at low physiological concentrations of ∼5 μg/mL observed in non-inflamed tissues. […] In the current study, we used LL-37 at a concentration of 1 μM (4.5 μg/mL) to study whether this peptide had immunomodulatory activity under non-inflamed physiological conditions. In ou ...

Question: With “LL-37: the only human cathelicidin, host defense antimicrobial peptide of 37 a.a. residues, produced by solid-phase peptide synthesis” as the substance, how does the IL-18 level ([1]; control 0.74) read?
Answer: Its IL-18 level is 0.52 pg/mL.

Question: And the MDC level ([1]; control 1.37)?
Answer: Its MDC level is 0.58 pg/mL.

Question: What about the IL-2 level ([1]; control 1.49) of the same substance?
Answer: Its IL-2 level is 1.16 pg/mL.

Question: What about the IL-6 level ([1]; control 1.7) of the same substance?
Answer: The IL-6 level was 1.09 pg/mL.

Question: What about the FLT-3L level ([1]; control 2.11) of the same substance?
Answer: The FLT-3L level was 1.96 pg/mL.

Question: What about the IL-8 level ([1]; control 3.74) of the same substance?
Answer: The IL-8 level was 5.93 pg/mL.

Question: And the IFNa2 level ([1]; control 4)?
Answer: Its IFNa2 level is <3.88↓ pg/ml.

Question: And the IL-4 level ([1]; control 4.85)?
Answer: The IL-4 level was 6.05 pg/mL.

Question: What about the IL-9 level ([1]; control 5.8) of the same substance?
Answer: The IL-9 level was 5.8 pg/mL.

Question: And the IFNg level ([1]; control 6.08)?
Answer: The IFNg level was 5.17 pg/mL.

Question: And the MCP-3 level ([1]; control 7.84)?
Answer: Its MCP-3 level is 7.84 pg/mL.

Question: What about the IL-1a level ([1]; control 9.17) of the same substance?
Answer: The IL-1a level was 10.05 pg/mL.

Question: And the TNFb level ([1]; control 12.53)?
Answer: The TNFb level was 16.33 pg/mL.

Question: What about the TNFa level ([1]; control 15.69) of the same substance?
Answer: The TNFa level was 16.61 pg/mL.

Question: What about the sCD40L level ([1]; control 23.6) of the same substance?
Answer: The sCD40L level was 23.6 pg/mL.

Question: And the IL-22 level ([1]; control 27.2, p = 0.093)?
Answer: The IL-22 level was 34 pg/mL and 34.37 pg/mL.

Question: And the PDGF-AB/BB level ([1]; control 29.35)?
Answer: Its PDGF-AB/BB level is 41.49 pg/mL.

Question: What about the GROa level ([1]; control 30.74) of the same substance?
Answer: Its GROa level is 50.06 pg/mL.

Question: What about the FGF-2 level ([1]; control 35.81) of the same substance?
Answer: Its FGF-2 level is 41.88 pg/mL.

Question: And the IL-27 level ([1]; control 35.81)?
Answer: Its IL-27 level is 51.37 pg/mL.

Question: What about the MIP-1b level ([1]; control 36.43) of the same substance?
Answer: Its MIP-1b level is 42.84 pg/mL.

Question: What about the MIG level ([1]; control 53.25) of the same substance?
Answer: The MIG level was 70 pg/mL.

Question: What about the M-GSF level ([1]; control 55.64) of the same substance?
Answer: Its M-GSF level is 47.83 pg/mL.

Question: And the GM-CSF level ([1]; control 69.7)?
Answer: Its GM-CSF level is 65.72 pg/mL.

Question: And the IP-10 level ([1]; control 141.7)?
Answer: The IP-10 level was 206.59 pg/mL.

Question: What about the IL-13 level ([1]; control 179.71) of the same substance?
Answer: Its IL-13 level is 178.25 pg/mL.

Question: And the PDGF-AA level ([1]; control 200.08)?
Answer: Its PDGF-AA level is 182.58 pg/mL.

Question: What about the IL-5 level ([1]; control 246.49) of the same substance?
Answer: Its IL-5 level is 258.81 pg/mL.

Question: And the MIP-1a level ([1]; control 399.48)?
Answer: The MIP-1a level was 471.29 pg/mL.

Question: And the RANTES level ([1]; control 718.58)?
Answer: Its RANTES level is 908.6 pg/mL.

Question: What about the VEGFa level ([1]; control 951.17) of the same substance?
Answer: Its VEGFa level is 1907 pg/mL.

Question: What about the IL-7 level ([1]; control <0.30) of the same substance?
Answer: The IL-7 level was <0.30↓ pg/ml.

Question: What about the IL-3 level ([1]; control <0.55) of the same substance?
Answer: The IL-3 level was <0.55↓ pg/ml.

Question: What about the TGF-a level ([1]; control <0.68) of the same substance?
Answer: The TGF-a level was <0.68↓ pg/ml.

Question: What about the IL-17A level ([1]; control <0.70) of the same substance?
Answer: The IL-17A level was <0.70↓ pg/ml.

Question: And the IL-1b level ([1]; control <0.74)?
Answer: The IL-1b level was <0.74↓ pg/ml.

Question: What about the IL-1RA level ([1]; control <0.93) of the same substance?
Answer: Its IL-1RA level is <0.93↓ pg/ml.

Question: What about the IL-10 level ([1]; control <1.35) of the same substance?
Answer: The IL-10 level was <1.35↓ pg/ml.

Question: What about the MCP-1 level ([1]; control <1.35) of the same substance?
Answer: Its MCP-1 level is 2.13 pg/mL.

Question: What about the IL-15 level ([1]; control <1.54) of the same substance?
Answer: The IL-15 level was <1.54↓ pg/ml.

Question: What about the EGF level ([1]; control <1.60) of the same substance?
Answer: Its EGF level is 2.26 pg/mL.

Question: And the “IL-12 (p70) level” value ([1]; control <1.71)?
Answer: Its value is <1.71↓ pg/ml.

Question: What about the G-CSF level ([1]; control <2.32) of the same substance?
Answer: The G-CSF level was <2.32↓ pg/ml.

Question: What about the Eotaxin level ([1]; control <2.91) of the same substance?
Answer: The Eotaxin level was <2.91↓ pg/ml.

Question: What about the “IL-12 (p40) level” value ([1]; control <3.33) of the same substance?
Answer: The value was <3.33↓ pg/ml.

Question: And the IL-17F level ([1]; control <12.19)?
Answer: The IL-17F level was <12.19↓ pg/ml.

Question: And the Fractalkine level ([1]; control <18.09)?
Answer: Its Fractalkine level is 19.78 pg/mL.

Question: What about the IL-17E/IL-25 level ([1]; control <19.43) of the same substance?
Answer: The IL-17E/IL-25 level was <19.43↓ pg/ml.

Question: And the “Production of TNFα or IL-10 in human PBMCs” value (human PBMCs)?
Answer: The value was “not able to increase the production of TNFα or IL-10”.
